The text below walks through data of US12398121B2 (Nuvation Bio Inc., priority 2018, dated 2025).

A value given as a limit tells only on which side of the number the result lay.

One assay addresses T1, AR in LNCaP cytosol (Homo sapiens, UniProt P10275, T878A).
T1 construct: endogenous in cells; host or cells: LNCaP cytosol
T1 sequence (P10275 1-920 T878A): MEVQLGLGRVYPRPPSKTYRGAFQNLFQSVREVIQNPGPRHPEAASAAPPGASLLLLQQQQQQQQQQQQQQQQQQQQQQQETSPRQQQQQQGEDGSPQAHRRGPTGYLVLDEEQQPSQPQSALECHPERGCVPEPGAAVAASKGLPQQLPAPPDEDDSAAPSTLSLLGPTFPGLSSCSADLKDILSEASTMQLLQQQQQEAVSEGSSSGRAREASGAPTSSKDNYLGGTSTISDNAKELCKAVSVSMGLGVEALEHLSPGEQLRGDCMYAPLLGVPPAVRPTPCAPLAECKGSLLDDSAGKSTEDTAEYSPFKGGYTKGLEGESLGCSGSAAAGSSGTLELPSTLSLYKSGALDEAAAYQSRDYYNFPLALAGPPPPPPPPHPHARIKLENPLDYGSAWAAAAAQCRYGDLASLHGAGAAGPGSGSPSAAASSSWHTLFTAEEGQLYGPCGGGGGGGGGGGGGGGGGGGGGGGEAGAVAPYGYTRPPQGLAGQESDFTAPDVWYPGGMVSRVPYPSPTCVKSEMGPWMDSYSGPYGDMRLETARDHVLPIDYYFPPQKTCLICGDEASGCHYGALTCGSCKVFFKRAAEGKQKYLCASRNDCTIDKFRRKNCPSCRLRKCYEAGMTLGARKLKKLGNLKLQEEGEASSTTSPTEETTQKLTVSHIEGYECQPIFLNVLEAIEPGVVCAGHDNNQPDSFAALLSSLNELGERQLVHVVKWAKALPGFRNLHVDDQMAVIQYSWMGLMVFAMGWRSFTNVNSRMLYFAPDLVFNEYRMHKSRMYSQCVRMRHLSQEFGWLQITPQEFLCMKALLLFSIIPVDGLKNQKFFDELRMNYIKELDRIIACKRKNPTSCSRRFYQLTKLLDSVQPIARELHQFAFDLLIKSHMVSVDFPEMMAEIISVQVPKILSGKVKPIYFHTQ
Kind of assay: AR binding assay (3H-methyltrienolone displacement). On the procedure:
The following methods are for evaluating the in vitro biology properties of the test articles. • a. RBC HotSpot Poly(ADP-ribose) Polymerases 1 (PARP1) and Poly(ADP-ribose) Polymerases 2 (PARP2) Assays: The assay principle is radioisotope-based filter binding assay where incorporation of radioisotope-labeled NAD^+ into the substrate captured on filter is detected after washout free NAD^+. Data were analyzed using Excel and GraphPad Prism software for IC50 curve fits. Each assay was conducted with PJ34 as a positive control. • i. PARP1 assay: Human recombinant PARP1 at a final concentration of 2.5 nM was combined with histone H4 (20 μM) and test articles at various concentrations in reaction buffer (50 mM Tris-HCL, pH 8.0, 50 mM NaCl, 10 mM MgCl2, 1 mM DTT, 1% DMSO, and 20 μg/mL activated DNA). The solution was inoculated for 20 min at room temperature and the reaction initiated by adding [adenylate-^32P]-Nicotinamide Adenine Dinucleotide, ^32P-NAD^+ at a final concentration of 10 μM. After incubation for 2 hour at room temperature, the reaction mixture was filtered and washed with 0.75% phosphoric acid for radioactivity detection. • ii. PARP2 assay: Human recombinant PARP2 at a final concentration of 2.5 nM was combined with histone H3 (20 μM) and test articles at various concentrations in reaction buffer (50 mM Tris-HCL, pH 8.0, 50 mM NaCl, 10 mM MgCl2, 1 mM DTT, 1% DMSO, and 20 μg/mL activated DNA). The solution was inoculated for 20 min at room temperature and the reaction was initiated by adding [adenylate-^32P]-Nicotinamide Adenine Dinucleotide, ^32P-NAD^+ at a final concentration of 10 μM. After incubation for 2 hour at room temperature, the reaction mixture was filtered and washed with 0.75% phosphoric acid for radioactivity detection. • b. AR binding assay: AR in LNCaP cytosol was used for determining the binding affinity of test articles and the reference compound—progesterone (Sigma, Cat: E2785, St. Louis, MO). IC50s were determined using 8 concentrations/compound. Cytosol was plated at 200 μg/well (100 μL) into a 96-well conical polypropylene plate (Agilent, Cat: 5042-1385, Santa Clara, CA) and mixed with 3 μL of test compound. After adding 100 μL of ^3H-methyltrienolone (PerkinElmer, Cat: NET590250UC, San Jose, CA), the plate was sealed and shaken at 300 rpm at 4° C. for 24 hours. Post incubation, 100 μL of radioligand adsorption buffer containing 10 mM Tris-HCl, pH 7.4; 1.5 mM EDTA; 1 mM DTT; 0.25% charcoal; 0.0025% dextran was added to individual well. Plate was shaken for 15 min at 4′C followed by centrifugation at 3000 rpm for 30 min at 4° C. 150 μL of supernatant was transferred into scint-tube (PerkinElmer, Cat: 6000192) and mixed with 2 mL of Ultima Gold Cocktail (PerkinElmer, Cat: 6013329). Radioactivity was counted using a TriCarb 2910 TR scintillation counter (PerkinElmer). Inhibition of the radioactivity by test articles were calculated using the equation below: % Inhibition=(1−(Assay well−Average_LC)/(Average_HC−Average_LC))×100%.
IC50 values were calculated and graphed using the model “log(inhibitor) vs. response—Variable slope” included in GraphPad Prism 5 (San Diego, CA). The Ki values were further calculated using the equation below where [L] was the radioligand concentration (1 nM) using in this study. Kd value was 0.332 nM. Ki=IC50/(1+[L]/Kd) c. AR transactivation: Human AR cloned into a CMV vector backbone was used for the transactivation study. HEK-293 cells were plated at 80,000 cells per well of a 24 well plate in DME+5% csFBS. Twenty four hours later, the cells were transfected using Lipofectamine (Invitrogen, Carlsbad, CA) with 0.25 μg GRE-LUC, 0.01 μg CMV-LUC (renilla luciferase) and 25 ng of the AR in OPTIMEM medium. The cells were treated 24 hrs after transfection with various ligands (10^−12 to 10^−5 M final concentrations) and luciferase assay were performed 48 hours after transfection. […]

The next assay addresses T2, DNA-PK (Homo sapiens, UniProt P78527).
T2 construct: purchased Invitrogen, Carlsbad, CA PR9107A
In words: DNA-PK inhibition (Reaction Biology HotSpot Kinase Assay, radioisotope filter binding). As to conditions: 5 nM DNA-PK, 20 μM DNA-PKtide, 33P-ATP. Type of assay: biochemical.

As for `CCN1C(=O)CNc2ncc(-c3ccc(-c4ncn(CCCCCCNC(=O)c5ccc(N6C(=S)N(c7ccc(C#N)c(C(F)(F)F)c7)C(=O)C6(C)C)cc5F)n4)nc3C)nc21` [Compound 3.1, 4-(3-(4-cyano-3-(trifluoromethyl)phenyl)-5,5-dimethyl-4-oxo-2-thioxoimidazolidin-1-yl)-N-(6-(3-(5-(8-ethyl-7-oxo-5,6,7,8-tetrahydropyrazino[2,3-b]pyrazin-2-yl)-6-methylpyridin-2-yl)-1H-1,2,4-triazol-1-yl)hexyl)-2-fluorobenzamide], the Ki (in general, a measure of affinity in units of concentration, obtained from inhibition or displacement) on AR in LNCaP cytosol was determined as 21 nM. The IC50 (in general, the concentration at which inhibition is half-maximal) at DNA-PK was more than 10000 nM.

`CCN1C(=O)CN(CCCCCCNC(=O)c2ccc(N3C(=S)N(c4ccc(C#N)c(C(F)(F)F)c4)C(=O)C3(C)C)cc2F)c2ncc(-c3ccc(-c4nc[nH]n4)nc3C)nc21` [Compound 3.2, 4-(3-(4-cyano-3-(trifluoromethyl)phenyl)-5,5-dimethyl-4-oxo-2-thioxoimidazolidin-1-yl)-N-(6-(4-ethyl-6-(2-methyl-6-(1H-1,2,4-triazol-3-yl)pyridin-3-yl)-3-oxo-3,4-dihydropyrazino[2,3-b]pyrazin-1(2H)-yl)hexyl)-2-fluorobenzamide]: on AR in LNCaP cytosol, the affinity, expressed as Ki, was 19 nM. This compound also returned an IC50 at DNA-PK of more than 10000 nM.
